Earlier results, collected in US8551986B2, “Treatment of sequelae of psychiatric disorders” (The McLean Hospital Corporation, priority 2005, dated 2013).

Conditions: human studies, all but one study; cited from earlier work

Compound | caloric intake
C=C1CC[C@@]2(O)[C@H]3Cc4ccc(O)c5c4[C@@]2(CCN3CC2CC2)[C@H]1O5 [nalmefene] | significant decreases
O=C1CC[C@@]2(O)[C@H]3Cc4ccc(O)c5c4[C@@]2(CCN3CC2CC2)[C@H]1O5 [naltrexone] | significant decreases
